Assays:
Assay type in all cases: binding
[1] = Identification of quadruplex forming nucleic acids by probing with NMM; settings: for interaction with NMM (quadruplex forming profile): 3 μM NMM, FIG. 2E; for capability of forming a quadruplex structure: 0.1 to 10 μM test nucleic acid probed with 3 μM NMM, FIG. 2C
Experimental: (§1) A typical assay was carried out in 100 μl of 20 mM HEPES buffer, pH 7.0, 140 mM NaCl, and 100 mM KCl. Fifty μl of quadruplex nucleic acid or a nucleic acid not capable of forming a quadruplex were added in 96-well plate. 50 μl of signal molecule was then added for a final concentration of 3 μM. N-methylmesoporphyrin IX (NMM) and meso-tetrakis(N-methyl-4-pyridyl)porphine (TMPyP4) were tested as signal molecules. Fluorescence was measured at an excitation wavelength of 420 nm and an emission wavelength of 660 nm for each of these signal molecules using a FluoStar 2000 fluorometer (BMG Labtechnologies, Durham, N.C.). NMM and TMPyP4 were obtained from Frontier Scientific Inc, Logan, Utah. Fluorescence was plotted as a function of concentration of nucleic acid added to the system at a constant 3 μM concentration of NMM (FIG. 2A) or TMPyP4 (FIG. 2B).
In this study, several oligonucleotides were analyzed to determine which of them were capable of forming quadruplex structures. The oligonucleotides in Table 2 were synthesized by Applied Biosystems (Foster City, Calif.).
FIG. 2E depicts quadruplex forming profiles for oligonucleotides QB-1 and QB-11 to QB-25.

[2] = tested on: non-quadruplex nucleic acid QB-2; test: Signal molecule fluorescence assay with nucleic acid not capable of forming a quadruplex; settings: 3 μM signal molecule; excitation 420 nm, emission 660 nm; FIG. 2A/2B
Experimental: as §1

[3] = tested on: quadruplex nucleic acid QB-1; test: Signal molecule fluorescence assay with quadruplex nucleic acid; settings: for fluorescent signal / interaction with quadruplex nucleic acid QB-1: 3 μM signal molecule, excitation 420 nm, emission 660 nm, FIG. 2A/2B
Experimental: as §1, with “Fifty” for “A typical assay was carried out in 100 μl of 20 mM HEPES buffer, pH 7.0, 140 mM NaCl, and 100 mM KCl. Fifty”

ds DNA pGL3 = test: EB competition with NMM or TMPyP4 for ds DNA; settings: 6.5 μg/μl pGL3; presence or absence of EB; FIG. 4C
Experimental: Next, the effect of EB competition with NMM or TMPyP4 for ds DNA was assessed. The assay was carried out as described in the previous paragraph, with 6.5 μg/μl pGL3, and the results were graphically compiled in FIG. 4C.
pGL3 was purchased from Promega, Madison, Wis. pGL3/myc included the nuclease hypersensitive element (NHE) MYC8 fragment from the proximal region of human c-MYC. pGL3/myc was constructed by cloning the MYC8 fragment from human genomic DNA (Promega, Madison, Wis.) and inserting that fragment into the multiple cloning site of the pGL3 vector via Nhe I and Bgl II digestion and ligation. The MYC8 fragment (840 bp) was cloned from human genomic DNA using two primer oligonucleotides. The sense strand primer oligonucleotide for the c-MYC regulatory region had the nucleotide sequence 5′-[…]-3′ (SEQ ID NO: 36; Nhe I site is underlined), which corresponded to site 1993 in the sense strand GenBank sequence. The antisense primer had the nucleotide sequence 5′-[…]-3′ (SEQ ID NO: 37; Bgl II site is underlined), which corresponded to site 2833 in the sense strand GenBank sequence. The Genbank sequence was the Homo sapiens MYC gene, c-myc proto-oncogene and ORF1, Length=10996 (http address: www.ncbi.nlm.nih.gov/entrez/query.fcgi?cmd=Retrieve&db=nucleotide&list_uids=188965&dopt=GenBank). The construct was confirmed by sequencing.

ss DNA QB-1 = test: Specificity of signal molecules for single-stranded DNA; settings: 3 μM NMM (FIG. 4A) or 3 μM EB (FIG. 4B)
Experimental: (§2) The specificity of signal molecules NMM and ethidium bromide was assessed with respect to single-stranded (ss) DNA and double-stranded (ds) DNA. Fluorescence was plotted as a function of the concentration of ss DNA QB-1 or ds DNAs pGL3E or pGL3E/myc, under conditions of 3 μM NMM (FIG. 4A) or 3 μM EB (FIG. 4B). Fluorescence of NMM was measured as described in Example 1. Fluorescence of EB was measured at an excitation wavelength of 485 nm and an emission wavelength 590 nm using a FluoStar 2000 fluorometer (BMG Labtechnologies, Durham, N.C.). Ethidium bromide (EB) was obtained from Calbiochem, San Diego, Calif.

[4] = tested on: ds DNAs pGL3E or pGL3E/myc; test: Specificity of signal molecules for double-stranded DNA; settings: 3 μM NMM (FIG. 4A) or 3 μM EB (FIG. 4B)
Experimental: as §2
pGL3 was purchased from Promega, Madison, Wis. pGL3/myc included the nuclease hypersensitive element (NHE) MYC8 fragment from the proximal region of human c-MYC. pGL3/myc was constructed by cloning the MYC8 fragment from human genomic DNA (Promega, Madison, Wis.) and inserting that fragment into the multiple cloning site of the pGL3 vector via Nhe I and Bgl II digestion and ligation. The MYC8 fragment (840 bp) was cloned from human genomic DNA using two primer oligonucleotides. The sense strand primer oligonucleotide for the c-MYC regulatory region had the nucleotide sequence 5′-[…]-3′ (SEQ ID NO: 36; Nhe I site is underlined), which corresponded to site 1993 in the sense strand GenBank sequence. […]

[5] = tested on: quadruplex nucleic acid QB-1; test: Competition of test molecules with NMM for quadruplex nucleic acid QB-1; settings: QB-1 5 μM, NMM 3 μM; FIG. 3
Experimental: Test molecules were mixed with the quadruplex nucleic acid QB-1 in a 96-well plate and fluorescence backgrounds were monitored under the conditions specified in Example 1. NMM was then added to wells in the 96-well plate to a final concentration of 3 μM. Fluorescence of NMM was measured at an excitation wavelength of 420 nm and an emission wavelength of 660 nm using a FluoStar 2000 fluorometer (BMG Labtechnologies, Durham, N.C.). Maximum fluorescent signals for NMM were assessed in the absence of the test molecules. Fluorescence was plotted as a function of the concentration of three test molecules with constant concentrations of QB-1 (5 μM) and NMM (3 μM)(FIG. 3). The test compounds were telomestatin, QQ28, and serinodisaphyrin (see, e.g., Shin-ya et al., J. Am. Chem. Soc. 123:1262 (2001); Duan et al., Mol. Cancer Therapeutics 1:103 (2001)).

QB-23: 5′-CGCTTGATGAGTCAGCCGGAA-3′, SEQ ID NO 33, AP-1 (DNA, backbone and methylation of C not given here)
interaction with NMM (quadruplex forming profile) [1]: did not appreciably interact with NMM

C[n+]1ccc(-c2c3nc(c(-c4cc[n+](C)cc4)c4ccc([nH]4)c(-c4cc[n+](C)cc4)c4nc(c(-c5cc[n+](C)cc5)c5ccc2[nH]5)C=C4)C=C3)cc1 [TMPyP4, meso-tetrakis(N-methyl-4-pyridyl)porphine]
fluorescent signal / interaction with non-quadruplex nucleic acid QB-2 [2]: varied significantly
change of emitted signal with increasing quadruplex nucleic acid concentrations ([3]; 3 μM TMPyP4, FIG. 2B, likely due to quenching): decreased with increasing quadruplex nucleic acid concentrations
fluorescent signal / interaction with quadruplex nucleic acid QB-1 [3]: varied significantly
interaction with ds DNA (ds DNA pGL3): did interact with ds DNA

QB-1: 5′-AGGGTGGGGAGGGTGGGGAA-3′, SEQ ID NO 17, c-MYC (DNA, backbone not given here)
capability of forming a quadruplex structure [1]: capable of forming a quadruplex structure

QB-10: 5′-GGTTGGTGTGGTTGG-3′, SEQ ID NO 20, intramolecular edge, or chair structure (DNA, backbone not given here)
capability of forming a quadruplex structure [1]: capable of forming a quadruplex structure

QB-25: 5′-CCTTCCCCACCCTCCCCACCCTCCCCA-3′, SEQ ID NO 35, c-MYC (DNA, backbone and methylation of C not given here)
interaction with NMM (quadruplex forming profile) [1]: did not appreciably interact with NMM

QB-9: 5′-GGGGTTTTGGGG-3′, SEQ ID NO 19, dimers for quadruplex of basket or crossover structure (DNA, backbone not given here)
capability of forming a quadruplex structure [1]: capable of forming a quadruplex structure

CCC1=C(C)c2cc3[nH]c(cc4nc(cc5c(CCC(=O)O)c(C)c(cc1n2)n5C)C(CCC(=O)O)=C4C)c(C)c3CC [NMM, N-methylmesoporphyrin IX]
fluorescent signal / interaction with non-quadruplex nucleic acid QB-2 [2]: did not interact appreciably
fluorescent signal / interaction with quadruplex nucleic acid QB-1 [3]: interacted with quadruplex nucleic acid QB-1
stabilization of quadruplex structure ([3]; without the addition of potassium ions, FIG. 2A): could stabilize quadruplex structure without the addition of potassium ions
interaction with ds DNA (ds DNA pGL3): did not interact with ds DNA
interaction with single-stranded DNA (ss DNA QB-1): interacted with ssDNA
interaction with double-stranded DNA [4]: did not interact appreciably with ds DNA

serinodisaphyrin
affinity of interaction with the quadruplex DNA (competition with NMM) [5]: intermediate affinity
identification as quadruplex interacting molecule [5]: identified as quadruplex interacting molecules

QB-20: 5′-GTGGTGGGTGGGTGGGT-3′, SEQ ID NO 30, T30177 (DNA, backbone not given here)
interaction with NMM (quadruplex forming profile) [1]: interacted most significantly
